In PubChem BioAssay AID2060489 (Molecular Pharmacology Branch, DTP, NCI, 2025):
pIC50: −log10 of the molar value.

Tested on: 922993-354-T-J3-PDC complex spheroids, viability
Experiment: Anticancer human tumor 922993-354-T-J3-PDC patient-derived endometrial carcinoma cell line growth inhibition [GQUAD]
Conditions: for pIC50: curve of first compound; for viability, T/C: stronger effect = lower value
Procedure, shortened: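 Tumor cells were grown as complex spheroids with HUVEC endothelial cells and mesenchymal stem cells as stroma. G-quadruplex stabilizers were combined with targeted agents over half-log dilutions from near the clinical Cmax, or from 10 microM.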

[1] = second compound 0.0316 µM, first compound 0.0316 µM
[2] = second compound 0.0316 µM, first compound 0.316 µM
[3] = second compound 0.1 µM, first compound 0.0316 µM
[4] = second compound 0.1 µM, first compound 0.316 µM
[5] = second compound 0.316 µM, first compound 0.0316 µM
[6] = second compound 0.316 µM, first compound 0.316 µM
[7] = second compound 1 µM, first compound 0.0316 µM
[8] = second compound 1 µM, first compound 0.316 µM
[9] = second compound 3.16 µM, first compound 0.0316 µM
[10] = second compound 3.16 µM, first compound 0.316 µM
[11] = second compound 10 µM, first compound 0.0316 µM
[12] = second compound 10 µM, first compound 0.316 µM
[13] = second compound 0.0316 µM, first compound 0.1 µM
[14] = second compound 0.0316 µM, first compound 1 µM
[15] = second compound 0.0316 µM, first compound 3.16 µM
[16] = second compound 0.0316 µM, first compound 10 µM
[17] = second compound 0.1 µM, first compound 0.1 µM
[18] = second compound 0.1 µM, first compound 1 µM
[19] = second compound 0.1 µM, first compound 3.16 µM
[20] = second compound 0.1 µM, first compound 10 µM
[21] = second compound 0.316 µM, first compound 0.1 µM
[22] = second compound 0.316 µM, first compound 1 µM
[23] = second compound 0.316 µM, first compound 3.16 µM
[24] = second compound 0.316 µM, first compound 10 µM
[25] = second compound 1 µM, first compound 0.1 µM
[26] = second compound 1 µM, first compound 1 µM
[27] = second compound 1 µM, first compound 3.16 µM
[28] = second compound 1 µM, first compound 10 µM
[29] = second compound 3.16 µM, first compound 0.1 µM
[30] = second compound 3.16 µM, first compound 1 µM
[31] = second compound 3.16 µM, first compound 3.16 µM
[32] = second compound 3.16 µM, first compound 10 µM
[33] = second compound 10 µM, first compound 0.1 µM
[34] = second compound 10 µM, first compound 1 µM
[35] = second compound 10 µM, first compound 3.16 µM
[36] = second compound 10 µM, first compound 10 µM
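Note: spheroids exposed to compounds for seven days.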
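Throughout, for viability, T/C: 100% = DMSO vehicle control viability.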

CC[C@@]1(O)C(=O)OCc2c1cc1n(c2=O)Cc2cc3c(CN(C)C)c(O)ccc3nc2-1 + Cc1cnc(CNC(=O)c2c(=O)c3ccc(N4CCCN(C)CC4)nc3n3c2sc2ccccc23)cn1
pIC50 (second compound 0.0316 µM): < 6.50
pIC50 (second compound 0.1 µM): 6.90
pIC50 (second compound 0.316 µM): 8.41
pIC50 (second compound 1 µM): 7.09
pIC50 (second compound 3.16 µM): 7.28
pIC50 (second compound 10 µM): > 9.00
viability, T/C (second compound 0.0316 µM, first compound 0.000999 µM): 94.7%
viability, T/C (second compound 0.0316 µM, first compound 0.00316 µM): 86.6%
viability, T/C (second compound 0.0316 µM, first compound 0.00999 µM): 84%
viability, T/C [1]: 86.9%
viability, T/C (second compound 0.0316 µM, first compound 0.0999 µM): 83.2%
viability, T/C [2]: 54.6%
viability, T/C (second compound 0.1 µM, first compound 0.000999 µM): 60.6%
viability, T/C (second compound 0.1 µM, first compound 0.00316 µM): 74.2%
viability, T/C (second compound 0.1 µM, first compound 0.00999 µM): 55.1%
viability, T/C [3]: 61%
viability, T/C (second compound 0.1 µM, first compound 0.0999 µM): 50.4%
viability, T/C [4]: 42.7%
viability, T/C (second compound 0.316 µM, first compound 0.000999 µM): 58.6%
viability, T/C (second compound 0.316 µM, first compound 0.00316 µM): 53.5%
viability, T/C (second compound 0.316 µM, first compound 0.00999 µM): 46.7%
viability, T/C [5]: 37.5%
viability, T/C (second compound 0.316 µM, first compound 0.0999 µM): 41.1%
viability, T/C [6]: 40.3%
viability, T/C (second compound 1 µM, first compound 0.000999 µM): 42.2%
viability, T/C (second compound 1 µM, first compound 0.00316 µM): 58.5%
viability, T/C (second compound 1 µM, first compound 0.00999 µM): 39.6%
viability, T/C [7]: 62.3%
viability, T/C (second compound 1 µM, first compound 0.0999 µM): 49.1%
viability, T/C [8]: 36.2%
viability, T/C (second compound 3.16 µM, first compound 0.000999 µM): 52.1%
viability, T/C (second compound 3.16 µM, first compound 0.00316 µM): 54.9%
viability, T/C (second compound 3.16 µM, first compound 0.00999 µM): 63.4%
viability, T/C [9]: 42.5%
viability, T/C (second compound 3.16 µM, first compound 0.0999 µM): 49.2%
viability, T/C [10]: 45.3%
viability, T/C (second compound 10 µM, first compound 0.000999 µM): 45.5%
viability, T/C (second compound 10 µM, first compound 0.00316 µM): 36.3%
viability, T/C (second compound 10 µM, first compound 0.00999 µM): 43.3%
viability, T/C [11]: 44.1%
viability, T/C (second compound 10 µM, first compound 0.0999 µM): 46.2%
viability, T/C [12]: 47.5%

COc1cc(C2c3cc4c(cc3C(OC3OC5COC(C)OC5C(O)C3O)C3COC(=O)C23)OCO4)cc(OC)c1O (stereo not drawn) + Cc1cnc(CNC(=O)c2c(=O)c3ccc(N4CCCN(C)CC4)nc3n3c2sc2ccccc23)cn1
pIC50 (second compound 0.0316 µM): < 5.00
pIC50 (second compound 0.1 µM): < 5.00
pIC50 (second compound 0.316 µM): > 7.50
pIC50 (second compound 1 µM): > 7.50
pIC50 (second compound 3.16 µM): > 7.50
pIC50 (second compound 10 µM): > 7.50
viability, T/C [1]: 82.3%
viability, T/C [13]: 60%
viability, T/C [2]: 60.5%
viability, T/C [14]: 74.5%
viability, T/C [15]: 50.9%
viability, T/C [16]: 49.9%
viability, T/C [3]: 62.3%
viability, T/C [17]: 59.1%
viability, T/C [4]: 53.8%
viability, T/C [18]: 63.6%
viability, T/C [19]: 62.8%
viability, T/C [20]: 39.9%
viability, T/C [5]: 44.1%
viability, T/C [21]: 53.2%
viability, T/C [6]: 38.6%
viability, T/C [22]: 49.7%
viability, T/C [23]: 41.6%
viability, T/C [24]: 34.3%
viability, T/C [7]: 46.8%
viability, T/C [25]: 39.9%
viability, T/C [8]: 49.6%
viability, T/C [26]: 36.1%
viability, T/C [27]: 36%
viability, T/C [28]: 43.4%
viability, T/C [9]: 40.6%
viability, T/C [29]: 47%
viability, T/C [10]: 39.1%
viability, T/C [30]: 46.6%
viability, T/C [31]: 52.4%
viability, T/C [32]: 48.2%
viability, T/C [11]: 47.9%
viability, T/C [33]: 50.3%
viability, T/C [12]: 45.4%
viability, T/C [34]: 38.2%
viability, T/C [35]: 43.4%
viability, T/C [36]: 41%

COc1cccc2c1C(=O)c1c(O)c3c(c(O)c1C2=O)CC(O)(C(=O)CO)CC3OC1CC(N)C(O)C(C)O1 (stereo not drawn) + Cc1cnc(CNC(=O)c2c(=O)c3ccc(N4CCCN(C)CC4)nc3n3c2sc2ccccc23)cn1
pIC50 (second compound 0.0316 µM): < 5.00
pIC50 (second compound 0.1 µM): 5.44
pIC50 (second compound 0.316 µM): > 7.50
pIC50 (second compound 1 µM): > 7.50
pIC50 (second compound 3.16 µM): > 7.50
pIC50 (second compound 10 µM): > 7.50
viability, T/C [1]: 83.7%
viability, T/C [13]: 79.4%
viability, T/C [2]: 67.2%
viability, T/C [14]: 75.3%
viability, T/C [15]: 73.1%
viability, T/C [16]: 55%
viability, T/C [3]: 54.3%
viability, T/C [17]: 71.3%
viability, T/C [4]: 58.3%
viability, T/C [18]: 51.1%
viability, T/C [19]: 53.6%
viability, T/C [20]: 42%
viability, T/C [5]: 52.8%
viability, T/C [21]: 39.7%
viability, T/C [6]: 42.1%
viability, T/C [22]: 40.4%
viability, T/C [23]: 60.5%
viability, T/C [24]: 42.2%
viability, T/C [7]: 50.6%
viability, T/C [25]: 40.2%
viability, T/C [8]: 37.1%
viability, T/C [26]: 43.2%
viability, T/C [27]: 52.2%
viability, T/C [28]: 38.8%
viability, T/C [9]: 38.5%
viability, T/C [29]: 41.3%
viability, T/C [10]: 41.3%
viability, T/C [30]: 41.8%
viability, T/C [31]: 51%
viability, T/C [32]: 27.4%
viability, T/C [11]: 44.9%
viability, T/C [33]: 40.2%
viability, T/C [12]: 46.6%
viability, T/C [34]: 50.5%
viability, T/C [35]: 36.8%
viability, T/C [36]: 11.8%

Nc1ccn(C2OC(CO)C(O)C2(F)F)c(=O)n1 (stereo not drawn) + Cc1cnc(CNC(=O)c2c(=O)c3ccc(N4CCCN(C)CC4)nc3n3c2sc2ccccc23)cn1
pIC50 (second compound 0.0316 µM): > 7.50
pIC50 (second compound 0.1 µM): > 7.50
pIC50 (second compound 0.316 µM): > 7.50
pIC50 (second compound 1 µM): > 7.50
pIC50 (second compound 3.16 µM): > 7.50
pIC50 (second compound 10 µM): > 7.50
viability, T/C [1]: 29.4%
viability, T/C [13]: 28.8%
viability, T/C [2]: 23.6%
viability, T/C [14]: 21.1%
viability, T/C [15]: 23.4%
viability, T/C [16]: 21.7%
viability, T/C [3]: 26.3%
viability, T/C [17]: 23.9%
viability, T/C [4]: 29.4%
viability, T/C [18]: 21.7%
viability, T/C [19]: 25.2%
viability, T/C [20]: 27.2%
viability, T/C [5]: 34.3%
viability, T/C [21]: 34.5%
viability, T/C [6]: 30.5%
viability, T/C [22]: 30.3%
viability, T/C [23]: 31.5%
viability, T/C [24]: 27.8%
viability, T/C [7]: 38.1%
viability, T/C [25]: 50.9%
viability, T/C [8]: 54.8%
viability, T/C [26]: 34.6%
viability, T/C [27]: 46.1%
viability, T/C [28]: 39.4%
viability, T/C [9]: 39.6%
viability, T/C [29]: 45%
viability, T/C [10]: 48.3%
viability, T/C [30]: 38%
viability, T/C [31]: 56.3%
viability, T/C [32]: 41.8%
viability, T/C [11]: 45.1%
viability, T/C [33]: 33.5%
viability, T/C [12]: 44.8%
viability, T/C [34]: 41.2%
viability, T/C [35]: 39.2%
viability, T/C [36]: 33.4%
